What was measured:
[1] = test system: water-load mice; test: Urination frequency of water-load mice; format: in vivo; conditions: imipramine 0.01 g/kg*d × 10, gavage
From the text: The experimental animal strains used herein are the SPF KM mice and Wistar rats. Each rat or mouse receives gavage drug administration. Shinyleaf yellowhorn extract is the refined extract from Refining Example IV, in the form of capsules. The control drug is imipramine, which has a strong anti-depression action and a weak atropine-like action, and is often used for treatment of the depression and children enuresis. The experimental method is calculating the urination frequency of mice based on the colorable reaction taking place when the dried potassium iodide and starch are mixed with the urine.

[2] = test system: excised smooth muscle of bladder of rats; test: Relaxation of excised smooth muscle of bladder of rats; format: cell-based; conditions: rat bladder smooth muscle strips; 12 experiments
From the text: The experimental animal strain used herein is the SPF Wistar rats. The experiment process is as follows: the rat bladder is surgically excised to prepare the strips of smooth muscle; place the smooth muscle in the thermostat nutrient solution, and then added with Shinyleaf yellowhorn extract (the refined extract from Refining Example IV, in the form of capsules) and the imipramine respectively, under the oxygen supply conditions, to observe the changes in smooth muscle.

[3] = test system: external bladder sphincter of the rabbit; test: Bioelectricity of the extracellular electrode of the external bladder sphincter of the rabbit; format: in vivo; conditions: 0.4 mg/kg, gavage
From the text: Experimental method: surgically implant indwelling electrode and record the changes of the external bladder sphincter of the rabbit with a physiological recorder. Administration mode: gavage administration. The adrenomimetic drug Midodrine is a selective α1 adrenoceptor agonist, commonly used for treating of stress incontinence clinically.

[4] = test system: dementia rat model; test: Avoidance conditioned reflex of the dementia rat model with destructed cholinergic neuron and Meynert basal ganglia; format: in vivo; conditions: 0.2 g/kg, gavage
From the text: The animal model of senile dementia is established pursuant to the method disclosed in “Experimental Alzheimer's Disease Animal Model with Destructed Cholinergic Neuron” (Pharmacological Experimental Methodology, Third Edition, […]). The kainic acid is a receptor agonist for the central exciting neurotransmitter glutamate, which has been widely used as a tool drug to establish the neurotoxicity model by the international community. Administration mode: gavage administration. The Piracetam-NEGPF [piracetam, […] acetamide, amide pyrrole ring (ketone)] is a brain metabolism nootropics that can protect and repair cranial nerve cells, promote the transformation of ADP into ATP in the brain and the synthesis of acetylcholine and prevent against the brain function injury caused by the physical and chemical factors, and is used in clinic for the treatment of the brain function disorder due to aging, cerebral vascular accident, traumatic brain injury, and CO poisoning.

[5] = test system: mouse sleeping model by sodium pentobarbital; test: Sleeping hours of the mouse (sodium pentobarbital sleep model); format: in vivo; conditions: mice, 0.02 g/kg gavage one hour prior to sodium pentobarbital
From the text: Establish the animal model of sleeping of the mouse by an intraperitoneal injection of sodium pentobarbital. Administer drug by gavage administration one hour prior to the injection, so as to observe the recovery time for the righting reflex of the mouse. Administration mode: gavage administration. The telucidone (meclofenoxate, or centrofenoxine) has an exciting action on central nerve and commonly used for the clinical treatment of traumatic unconscious disturbance and children enuresis.

SMILES: CN(C)CCCN1c2ccccc2CCc2ccccc21 [Imipramine, imipramine]
- Urination frequency ([1]; 0.5 h): 0.9 ± 0.7 times/each
- Urination frequency ([1]; 1.0 h): 2.9 ± 1.3 times/each
- Urination frequency ([1]; 2.0 h): 2.6 ± 1.5 times/each
- Urination frequency ([1]; 3.0 h): 1.3 ± 0.8 times/each
- Concentration of solution as smooth muscle shows complete relaxation [2]: 0.15 mg/mL

SMILES: COc1ccc(OC)c(C(O)CNC(=O)CN)c1 (centres unmarked) [Midodrine]
- Frequency [3]: 35.4 ± 11.6 times/min
- Time duration [3]: 18.7 ± 10.3 min
- Wave amplitude [3]: 14.9 ± 6.7 mv

SMILES: NC(=O)CN1CCCC1=O [Piracetam-NEGPF, piracetam]
- Latency ([4]; 72 h post stopping of training): 4.6 ± 0.7 s
- Positive rate ([4]; 72 h post stopping of training): 58.2 ± 7.4 %
- Latency ([4]; The fifth day): 2.6 ± 0.6 s
- Positive rate ([4]; The fifth day): 71.05 ± 8.2 %
- Latency ([4]; The first day): 7.1 ± 3.3 s
- Positive rate ([4]; The first day): 30.5 ± 12.7%
- Latency ([4]; The third day): 4.4 ± 1.0 s
- Positive rate ([4]; The third day): 57.6 ± 8.0 %

SMILES: CN(C)CCOC(=O)COc1ccc(Cl)cc1 [Telucidone, meclofenoxate]
- Hour of sleep [5]: 61.2 ± 10.7 min

From US20100034903A1, “SHINYLEAF YELLOWHORN EXTRACT, METHODS FOR EXTRACTION AND USES THEREOF” (priority 2006, published 2010)
